Experimental data: US20130034613A1, “FORMULATIONS OF PHOSPHITES” (Ceradis B.V., priority 2009, published 2013)

How the values were obtained:
Format in all cases: in vivo
[1] = test system: garden cress (Lepidium sativum) seedlings; assay: Phytotoxicity towards garden cress seedlings after spraying; conditions: summary of Table 2
Description: Two compositions of potassium phosphite are prepared, one with and one without calcium lignosulfonate (Borresperse CA®, Borregaard LignoTech Ltd, Germany). The formulation and the concentration in the spray solution are calculated in such a way that the dosage of phosphite is the same for both compositions (120 mM=14.4 g potassium phosphite/1 spray solution). A control is added in which the adjuvants alone (without lignosulfonate or phosphite) are tested.
Various adjuvants are added to the two compositions: alcohol ethoxylate (commercial product: Genapol EP 2584, Clariant, Germany), di-octyl sulfosuccinate (commercial product Emulsogen SF8, Clariant, Germany), quaternary ammonium surfactant (commercial product Geronol CF/PN-20N, Rhodia, France) and ethoxylated tallow amine (commercial product Ethomeen S25, Akzo Nobel, The Netherlands). All adjuvant products arc added at a concentration of 5 g/l spray solution. For both compositions, a control is added without adjuvant.
Garden cress seedlings are grown in plastic boxes (100 seeds/box) on mineral sand. Boxes were kept at 22° C. One week old seedlings are sprayed with the various spray solutions until run-off of the solutions occurs. Phytotoxicity is observed three days after spraying. The percentage of seedlings dead or showing phytotoxicity symptoms is estimated. […]

rose = assay: Phytotoxicity towards rose after spraying (Example 2); conditions: summary of Table 3
Text: The experimental design is a randomized block design with a plot size of 3 plants per plot. The experiment has 4 replications. Plants are sprayed with solution until run-off occurs. The composition and the dose rate of the different treatments are the same as in example 1, except that calcium lignosulfonate was replaced by sodium lignosulfonate (Borresperse NA®, Borregaard LignoTech Ltd, Germany).
Phytotoxicity is observed one week after spraying. Per plant, the percentage leaf area dead or showing phytotoxicity symptoms is estimated.

[2] = test system: grapevine cultivar Merlot; assay: Phytotoxicity towards grapevine after spraying; conditions: summary of Table 4
Text: The experimental design is a randomized block design with a plot size of 3 plants per plot. The experiment has 4 replications. Plants are sprayed with solution until run-off occurs. The composition and the dose rate of the different treatments are the same as in example 1.
Phytotoxicity is observed one week after spraying. Per plant, the percentage leaf area dead or showing phytotoxicity symptoms was estimated.

Measured: phytotoxicity (in words)

potassium phosphite
phytotoxic: all assays above
